From article PMC6296175, “Oxidative stress‐induced structural changes in the microtubule‐associated flavoenzyme Irc15p from Saccharomyces cerevisiae” (Protein Science : A Publication of the Protein Society, 2018)

What was measured:
Irc15p [1] = molecular target: T1, Irc15p (Saccharomyces cerevisiae, UniProt Q02733); assay: thermal shift assay (SYPRO Orange); assay type: binding; details: 50 mM HEPES, 50 mM NaCl, 1 mM DTT, pH 7.0, absolute Tm, compare ligand-free control in the 4th table, row 3
T1 construct: gene IRC15; E. coli Rosetta (DE3); ~55 kDa subunit, homodimer ~113-115 kDa, one FAD per protomer
T1 sequence (Q02733 1-499): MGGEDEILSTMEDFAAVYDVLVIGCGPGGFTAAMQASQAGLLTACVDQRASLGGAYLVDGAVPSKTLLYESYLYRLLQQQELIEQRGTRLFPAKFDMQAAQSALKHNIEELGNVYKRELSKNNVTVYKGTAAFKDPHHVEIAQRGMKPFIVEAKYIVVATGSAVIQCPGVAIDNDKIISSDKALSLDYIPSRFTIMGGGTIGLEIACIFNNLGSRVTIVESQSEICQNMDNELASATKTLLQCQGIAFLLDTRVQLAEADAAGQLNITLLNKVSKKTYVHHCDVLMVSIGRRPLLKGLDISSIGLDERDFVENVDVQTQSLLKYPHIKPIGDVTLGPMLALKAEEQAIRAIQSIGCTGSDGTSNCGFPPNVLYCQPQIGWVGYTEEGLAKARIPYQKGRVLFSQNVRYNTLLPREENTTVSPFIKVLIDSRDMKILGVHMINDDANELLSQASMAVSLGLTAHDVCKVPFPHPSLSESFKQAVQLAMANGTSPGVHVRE
Source text: thermal shift assay (SYPRO Orange) on Irc15p

Irc15p [2] = molecular target: T1, Irc15p; assay: stopped-flow reductive half-reaction, flavin absorption at […] nm, hyperbolic fit of rate; assay type: biochemical; details: anoxic; 50 mM HEPES, 50 mM NaCl, 1 mM DTT, pH 7.0; 4 °C; pre-steady-state; read-out: dissociation constant
Irc15p [3] = molecular target: T1, Irc15p; assay: HPLC of flavin released from denatured protein; UV-Vis absorption; assay type: binding; details: co-purified; lysis buffer supplemented with 10 μM FAD; one FAD per protomer
[4] = molecular target: the molecule itself; assay: SEC; analytical size exclusion chromatography, Superdex 200 10/300 GL, buffer A (50 mM HEPES, 150 mM NaCl, 1 mM DTT, pH 7.0), calibrated with molecular mass standards; elution monitored at 280 and 450 nm

With `NC(=O)C1=CN([C@@H]2O[C@H](COP(=O)(O)OP(=O)(O)OC[C@H]3O[C@@H](n4cnc5c(N)ncnc54)[C@H](OP(=O)(O)O)[C@@H]3O)[C@@H](O)[C@H]2O)C=CC1` [NADPH] the “T m [°C]” value (Irc15p [1]; 50 mM NADPH, ligand reduces the FAD) was 45 °C.

`NC(=O)c1ccc[n+]([C@@H]2O[C@H](COP(=O)(O)OP(=O)(O)OC[C@H]3O[C@@H](n4cnc5c(N)ncnc54)[C@H](O)[C@@H]3O)[C@@H](O)[C@H]2O)c1` [NAD^+] was tested, and the “T m [°C]” value (Irc15p [1]; 50 mM NAD+) was 64 °C.

`NC(=O)C1=CN([C@@H]2O[C@H](COP(=O)(O)OP(=O)(O)OC[C@H]3O[C@@H](n4cnc5c(N)ncnc54)[C@H](O)[C@@H]3O)[C@@H](O)[C@H]2O)C=CC1` [NADH] was tested, and the Kd (Irc15p [2]) was 100 ± 5 µM and the “T m [°C]” value (Irc15p [1]; 50 mM NADH, ligand reduces the FAD) was 47 °C.

For `Cc1cc2nc3c(=O)[nH]c(=O)nc-3n(C[C@H](O)[C@H](O)[C@H](O)COP(=O)(O)OP(=O)(O)OC[C@H]3O[C@@H](n4cnc5c(N)ncnc54)[C@H](O)[C@@H]3O)c2cc1C` [FAD], the “HPLC of flavin released from denatured protein; UV-Vis absorption” value (Irc15p [3]) was “closely corresponding to the retention time of authentic FAD”.

B1: Irc15p (increased recombination centers 15) (enzyme, S. cerevisiae, UniProt Q02733 1-499, looked up)
chain: T1 sequence (Q02733 1-499)
notes: The forward primer carries the start ATG; Homodimer with one FAD per protomer; this was read from the printed primers; source: E. coli Rosetta (DE3), pET21d(+)IRC15, purified (Ni-NTA HisTrap HP; for SAXS also size exclusion chromatography)
For B1, the “stoichiometry N” value [4] was 2.
